In US20260376311A1, “Subject selection for 11B-HSD1 inhibitor treatment” (ACTINOGEN MEDICAL LIMITED, priority 2022, published 2026):

Tests used:
pTau181 = experiment: Biomarker analysis of plasma pTau181, Biomarker Extension Study; assay type: in vivo, human; conditions: 10 mg QD
Description: (§1) A Non-interventional Biomarker Analysis Extension Protocol study was conducted for Participants who were previously enrolled in the above described Phase II, Double-Blind, 12-Week, Randomised, Placebo-Controlled Study to Assess the Safety, Tolerability and Efficacy of Xanamem™ in Subjects with Mild Dementia due to Alzheimer's Disease (AD). The objectives for study were: • 1. To analyze the levels of biomarkers of Alzheimer's Disease (AD) proteins, neurodegeneration, and neuro-inflammation in stored plasma samples from participants with mild dementia due to AD enrolled in the previous clinical trial (at baseline and Week 12 and their change from baseline for each treatment) • 2. To examine the change from baseline in biomarkers by treatment group to Week 12 by baseline pTau181 quartile categorization/level • 3. To explore the efficacy of Xanamem in relationship to quartiles categorization/level of pTau181 levels at baseline • 4. To correlate the changes from baseline in biomarkers by treatment with changes in cognitive endpoints
(§2) From above described clinical study, the extant blood samples of 72 patients were subjected to further disease biomarker analysis. A biomarker laboratory (blinded to treatment assignment), analyzed those blood samples to determine the biomarker variable pTau181.
(§3) For the biomarker p-Tau181, change from baseline to Week 12 were analyzed by ANCOVA with the following models: • treatment as fixed effect and baseline biomarker value as covariate; • treatment, baseline p-Tau181 (low/high) category, and treatment-by-baseline p-Tau181 (low/high) category as fixed effects, and baseline biomarker value as covariate; • treatment, baseline p-Tau181 (≤10.2 pg/mL/>10.2 pg/mL) category, and treatment-by-baseline p-Tau181 (≤10.2 pg/mL/>10.2 pg/mL) category as fixed effects, and baseline biomarker value as covariate; and • treatment, baseline MMSE (less severe (≥24)/more severe (≤23)) category, and treatment-by-baseline MMSE (less severe (≥24)/more severe (≤23)) category as fixed effects, and baseline biomarker value as covariate.

[1] = Mini-Mental Status Examination (MMSE), Phase II placebo-controlled study, Biomarker Extension Study; assay type: in vivo, human
Description: (§4) A Phase II, Double-Blind, 12-Week, Randomised, Placebo-Controlled Study was conducted to Assess the Safety, Tolerability and Efficacy of Xanamem™ in Subjects with Mild Dementia due to Alzheimer's Disease (AD).
(§5) Study Design: This is a Phase II, randomized, multi-centre, double-blind, placebo-controlled, proof-of-concept study to assess the safety, tolerability and efficacy of oral Xanamem™ QD in adult subjects with mild dementia due to AD.
(§6) At the Baseline visit (Week 0), eligible subjects will be randomised on a 1:1 ratio to receive either 10 mg Xanamem™ administered orally, QD (treatment group) or matching placebo (placebo group). Subjects returned to the study site for the Interim visits (Week 4 and Week 8), EOT (Week 12) and Follow-up (4 weeks post last dose of study drug) visits, at which study assessments were performed.
(§7) Xanamem™ is formulated in green and cream-coloured size 3, Coni-Snap shaped gelatin capsules as an excipient blend at a dose of 10 mg (see Table 1). The dose of Xanamen™ will be 10 mg administered orally, QD.
The MMSE is a 30-point questionnaire that is used extensively in clinical and research settings to measure cognitive impairment and is commonly used in medicine and allied health to screen for dementia. It is also used to estimate the severity and progression of cognitive impairment and to follow the course of cognitive changes in an individual over time; thus making it an effective way to document a participant's response to treatment. For this study, MMSE results are relevant for subject eligibility and performed at Screening visit.
as §1, §2
An analysis of overall efficacy was undertaken of the population (n=72).
as §3, with “cognitive efficacy variables (CDR-SB and MMSE),” for “biomarker p-Tau181,”, “was” for “were”, “cognitive efficacy” for “biomarker”

[2] = Pharmacokinetics of Xanamem (Phase I peak concentrations; fed/fasted bioavailability); assay type: in vivo, human; conditions: oral; with meals vs fasted; in words
[3] = Clinical Dementia Rating Scale-Sum of Boxes (CDR-SB), Phase II placebo-controlled study, Biomarker Extension Study; assay type: in vivo, human; conditions: 12 weeks
Description: as §4, §5, §6, §7
The Washington University CDR is a global assessment instrument that yields global and SOB scores, with the global score regularly used in clinical and research settings to stage dementia severity. The CDR-SOB score has been considered a more detailed quantitative general index than the global score and provides more information than the global CDR score in participants with mild dementia. CDR Global results are relevant for subject eligibility and thus will also be performed at the Screening visit.
The CDR is obtained through semi-structured interviews of patients and informants, and cognitive functioning is rated in six domains of functioning: memory, orientation, judgement and problem solving, community affairs, home and hobbies, and personal care. Each domain is rated on a five-point scale of functioning as follows: 0, no impairment; 0.5, questionable impairment; 1, mild impairment; 2, moderate impairment; and 3, severe impairment.
The global CDR score is computed via an algorithm. CDR Global score is calculated using the Washington University online algorithm. The CDR-SOB is based on summing each of the domain box scores, with scores ranging from 0-18.
as §1
From above described clinical study, the extant blood samples of 72 patients were subjected to further disease biomarker analysis. A biomarker laboratory (blinded to treatment assignment), analyzed those blood samples to determine the biomarker variable pTau181. […]

[4] = Safety of drug intake when fasted; assay type: in vivo, human; conditions: oral, in words
[5] = comparison with Xanamem treatment effect; cited from earlier work
[6] = baseline to Week 12, sample size 28 and 26
[7] = 10 mg QD oral, 12 weeks, baseline MMSE 20-23, N = 46
[8] = 10 mg QD oral, 12 weeks, baseline MMSE 24-26, N = 26
[9] = 10 mg QD oral, pTau >6.74 pg/mL subgroup, N = 34
[10] = 10 mg QD oral, pTau > 10.2 pg/mL, N = 9
[11] = 10 mg QD oral, pTau ≤ 10.2 pg/mL, N = 59
[12] = Xanamem vs placebo, pTau>6.74 pg/mL subgroup, 10 mg QD

## O=C(c1csc(-c2cn[nH]c2)c1)N1[C@@H]2CC[C@H]1C[C@](O)(c1ncccn1)C2 [Xanamem, (5-(1H-Pyrazol-4-yl)thiophen-3-yl)(3-hydroxy-3-(pyrimidin-2-yl)-8-azabicyclo[3.2.1]octan-8-yl)methanone]
pTau181; sample size 28 (Xanamem) and 26 (placebo), placebo −8.59
  change in biomarker pTau181 from baseline to Week 12: −2.37
pTau181; baseline to Week 12, in words
  treatment trend in change of pTau181: no treatment trend was observed
pTau181; [6]
  Cohen's d for change in pTau181, Xanamem vs placebo: 0.08
  p for change in pTau181, Xanamem vs placebo: 0.40
[1]; [7]
  Cohen's d for MMSE (mean), Xanamem vs placebo: 0.93
  p value for MMSE (mean), Xanamem vs placebo: 0.02
[1]; 10 mg QD oral, 12 weeks, baseline MMSE 20-23, N = 46, desired change up, placebo −0.3
  MMSE change, MMSE 20-23 (mean): 1.7
[1]; 10 mg QD oral, 12 weeks, baseline MMSE 20-23, N = 46, desired change up, placebo −1.0
  MMSE change, MMSE 20-23 (median): 2.0
[1]; [8]
  Cohen's d for MMSE (mean), Xanamem vs placebo: −0.17
  p value for MMSE (mean), Xanamem vs placebo: 0.88
[1]; 10 mg QD oral, 12 weeks, baseline MMSE 24-26, N = 26, desired change up, placebo −1.0
  MMSE change, MMSE 24-26 (median): −1.0
[1]; 10 mg QD oral, 12 weeks, baseline MMSE 24-26, N = 26, desired change up, placebo −1.4
  MMSE change, MMSE 24-26 (mean): −1.5
[1]; overall population n=72, 10 mg QD
  Cohen's d for MMSE, Xanamem over placebo: 0.35
[1]; overall population n=72, Xanamem n=37, 10 mg QD, placebo (n=35) decrease of 0.6
  increase in the mean MMSE score: 0.3
[2]
  bioavailability in fed state: higher bioavailability observed when taken in a fed state
[3]; 10 mg QD oral, N = 9, desired change down, placebo 0.5
  CDR-SB change, pTau pg/mL > 10.2 (median): −0.3
[3]; 10 mg QD oral, N = 9, desired change down, placebo 0.8
  CDR-SB change, pTau pg/mL > 10.2 (mean): 0.1
[3]; 10 mg QD oral, N = 34, desired change down, placebo 0.0
  CDR-SB change, pTau units ≤ 6.74 (median): 0.0
[3]; 10 mg QD oral, N = 34, desired change down, placebo 0.8
  CDR-SB change, pTau > 6.74 pg/mL (median): 0.0
[3]; 10 mg QD oral, N = 34, desired change down, placebo 1.0
  CDR-SB change, pTau > 6.74 pg/mL (mean): 0.4
[3]; 10 mg QD oral, N = 34, desired change down, placebo −0.1
  CDR-SB change, pTau units ≤ 6.74 (mean): 0.5
[3]; 10 mg QD oral, N = 59, desired change down, placebo 0.0
  CDR-SB change, pTau ≤ 10.2 pg/mL (median): 0.0
[3]; 10 mg QD oral, N = 59, desired change down, placebo 0.4
  CDR-SB change, pTau ≤ 10.2 pg/mL (mean): 0.5
[3]; [9]
  Cohen's d for CDR-SB (mean), Xanamem vs placebo: 0.41
  p value for CDR-SB (mean), Xanamem vs placebo: 0.09
[3]; 10 mg QD oral, pTau >6.74 pg/mL subgroup, Xanamem n = 16, desired change down, placebo 0.8
  CDR-SB units (median), change: 0.0 CDR-SB units
[3]; 10 mg QD oral, pTau >6.74 pg/mL subgroup, Xanamem n = 16, desired change down, placebo 1.0
  CDR-SB units (mean), change: 0.4 CDR-SB units
[3]; [10]
  Cohen's d for CDR-SB (mean), Xanamem vs placebo: 0.62
  p value for CDR-SB (mean), Xanamem vs placebo: 0.33
[3]; 10 mg QD oral, pTau units ≤ 6.74, N = 34
  Cohen's d for CDR-SB (mean), Xanamem vs placebo: 0.40
[3]; 10 mg QD oral, pTau ≤ 6.74 pg/mL, N = 34
  p value for CDR-SB (mean), Xanamem vs placebo: 0.08
[3]; [11]
  Cohen's d for CDR-SB (mean), Xanamem vs placebo: −0.06
  p value for CDR-SB (mean), Xanamem vs placebo: 0.78
[3]; [12]
  treatment effect on CDR-SB, mean: 0.6 points
  treatment effect on CDR-SB, median: 0.8 points
[4]
  safety of drug intake when fasted: no safety concern

## CC12CC3CC(C)(C1)CC(N)(C3)C2 [memantine]
[5]
  Cohen's d of approved oral anticholinesterases or memantine: 0.2-0.3
